Like-named read-outs stand apart in the source and are kept apart here.
Assays:
[1] = tested on: EGFR activation (granule formation) in A549-EGFRB cells; experiment: EGFRB assay, granule count readout; type: cell-based; details: for inhibition at 10 µM: read-out: HTS % inhibition at 10 μM Granule count; for IC50 / EC50: read-out: IC50 or EC50 (nM) Granule count
[2] = tested on: A549-EGFRB cells; experiment: EGFRB assay, nuclei count readout; type: cell-based; details: for inhibition at 10 µM: read-out: HTS % inhibition at 10 μM Nuclei count; for HTS % inhibition at 10 μM Nuclei count: pilot screen, 10 μM compound, average of duplicates
[3] = tested on: A549 cells (wild type EGFR); experiment: Alamar Blue viability assay, A549; type: cell-based; details: for IC50: Homo sapiens, A549, 120 h, read-out: Alamar Blue viability assay IC50 A549; for Alamar Blue viability assay IC50 A549: 120 hours incubation, * = partial inhibition
[4] = tested on: H2030 cells (wild type EGFR); experiment: Alamar Blue viability assay, H2030; type: cell-based; details: for IC50: Homo sapiens, NCI-H2030, 120 h, read-out: Alamar Blue viability assay IC50 H2030; for Alamar Blue viability assay IC50 H2030: 120 hours incubation, * = partial inhibition
[5] = tested on: H3255 cells (L858R EGFR mutation); experiment: Alamar Blue viability assay, H3255; type: cell-based, human; details: for IC50: Homo sapiens, NCI-H3255, 120 h, read-out: Alamar Blue viability assay IC50 H3255; for Alamar Blue viability assay IC50 H3255: 120 hours incubation, * = partial inhibition
[6] = tested on: HCC4011 cells (L858R EGFR mutation); experiment: Alamar Blue viability assay, HCC4011; type: cell-based, human; details: for IC50: Homo sapiens, HCC4011, 120 h, read-out: Alamar Blue viability assay IC50 HCC4011; for Alamar Blue viability assay IC50 HCC4011: 120 hours incubation, * = partial inhibition
[7] = target: EGFR kinase (Homo sapiens, UniProt P00533); experiment: Luminescence ADP production kinase assay, EGFR; type: biochemical; details: for Luminescence ADP kinase assay IC50 EGFR: 50 nM enzyme, 200 μM ATP, low limit 10 nM, * = partial inhibition
EGFR kinase, sequence (P00533 25-1210): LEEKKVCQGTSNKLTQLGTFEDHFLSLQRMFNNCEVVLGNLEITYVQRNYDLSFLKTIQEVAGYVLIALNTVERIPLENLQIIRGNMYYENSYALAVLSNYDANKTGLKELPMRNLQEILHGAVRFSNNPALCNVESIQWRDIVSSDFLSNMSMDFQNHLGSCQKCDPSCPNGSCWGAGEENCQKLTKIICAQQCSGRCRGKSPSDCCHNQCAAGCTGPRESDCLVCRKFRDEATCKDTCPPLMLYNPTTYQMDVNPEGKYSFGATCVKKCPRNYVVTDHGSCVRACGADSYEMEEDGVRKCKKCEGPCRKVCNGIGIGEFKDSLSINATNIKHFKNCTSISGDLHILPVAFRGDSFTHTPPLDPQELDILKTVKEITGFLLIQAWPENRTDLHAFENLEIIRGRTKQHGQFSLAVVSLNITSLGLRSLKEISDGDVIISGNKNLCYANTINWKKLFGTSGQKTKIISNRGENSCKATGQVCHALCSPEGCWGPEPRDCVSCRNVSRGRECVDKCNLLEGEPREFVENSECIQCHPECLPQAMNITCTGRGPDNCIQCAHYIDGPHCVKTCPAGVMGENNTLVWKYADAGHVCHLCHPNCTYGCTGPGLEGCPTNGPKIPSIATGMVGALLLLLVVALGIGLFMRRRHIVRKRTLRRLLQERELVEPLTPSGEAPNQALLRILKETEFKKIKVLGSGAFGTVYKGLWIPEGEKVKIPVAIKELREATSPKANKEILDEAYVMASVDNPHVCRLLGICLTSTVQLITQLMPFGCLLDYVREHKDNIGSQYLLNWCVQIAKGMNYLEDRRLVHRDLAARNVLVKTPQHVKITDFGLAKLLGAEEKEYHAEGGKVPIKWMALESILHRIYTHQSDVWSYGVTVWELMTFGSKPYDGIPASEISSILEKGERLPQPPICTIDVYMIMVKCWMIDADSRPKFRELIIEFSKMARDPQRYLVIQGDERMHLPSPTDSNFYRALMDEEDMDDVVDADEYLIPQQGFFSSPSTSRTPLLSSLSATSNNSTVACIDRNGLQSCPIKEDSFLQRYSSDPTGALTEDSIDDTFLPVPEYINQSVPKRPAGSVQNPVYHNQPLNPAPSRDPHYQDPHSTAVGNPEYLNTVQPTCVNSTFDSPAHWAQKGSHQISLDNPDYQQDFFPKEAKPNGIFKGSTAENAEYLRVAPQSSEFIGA

[8] = target: SRC kinase (Homo sapiens, UniProt P12931); experiment: Luminescence ADP production kinase assay, SRC; type: biochemical; details: for Luminescence ADP kinase assay IC50 SRC: 50 nM enzyme, 200 μM ATP, * = partial inhibition
SRC kinase, sequence (P12931 whole entry): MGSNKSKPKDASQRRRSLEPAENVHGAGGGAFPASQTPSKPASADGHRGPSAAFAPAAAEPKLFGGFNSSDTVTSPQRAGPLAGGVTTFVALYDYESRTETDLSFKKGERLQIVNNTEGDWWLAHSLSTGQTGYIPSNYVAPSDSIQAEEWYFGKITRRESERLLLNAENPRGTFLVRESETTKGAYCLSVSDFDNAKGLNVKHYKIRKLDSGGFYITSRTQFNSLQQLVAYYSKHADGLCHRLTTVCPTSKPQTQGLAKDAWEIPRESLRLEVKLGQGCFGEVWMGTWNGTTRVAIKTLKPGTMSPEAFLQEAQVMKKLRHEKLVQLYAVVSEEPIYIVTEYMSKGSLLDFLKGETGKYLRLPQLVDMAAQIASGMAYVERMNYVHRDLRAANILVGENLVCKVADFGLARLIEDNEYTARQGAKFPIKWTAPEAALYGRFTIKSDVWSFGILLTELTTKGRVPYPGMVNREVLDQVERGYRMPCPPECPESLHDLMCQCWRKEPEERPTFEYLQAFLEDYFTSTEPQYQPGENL

[9] = target: ABL kinase (Homo sapiens, UniProt P00519); experiment: Luminescence ADP production kinase assay, ABL; type: biochemical; details: for Luminescence ADP kinase assay IC50 ABL: 50 nM enzyme, 200 μM ATP, * = partial inhibition
ABL kinase, sequence (P00519 whole entry): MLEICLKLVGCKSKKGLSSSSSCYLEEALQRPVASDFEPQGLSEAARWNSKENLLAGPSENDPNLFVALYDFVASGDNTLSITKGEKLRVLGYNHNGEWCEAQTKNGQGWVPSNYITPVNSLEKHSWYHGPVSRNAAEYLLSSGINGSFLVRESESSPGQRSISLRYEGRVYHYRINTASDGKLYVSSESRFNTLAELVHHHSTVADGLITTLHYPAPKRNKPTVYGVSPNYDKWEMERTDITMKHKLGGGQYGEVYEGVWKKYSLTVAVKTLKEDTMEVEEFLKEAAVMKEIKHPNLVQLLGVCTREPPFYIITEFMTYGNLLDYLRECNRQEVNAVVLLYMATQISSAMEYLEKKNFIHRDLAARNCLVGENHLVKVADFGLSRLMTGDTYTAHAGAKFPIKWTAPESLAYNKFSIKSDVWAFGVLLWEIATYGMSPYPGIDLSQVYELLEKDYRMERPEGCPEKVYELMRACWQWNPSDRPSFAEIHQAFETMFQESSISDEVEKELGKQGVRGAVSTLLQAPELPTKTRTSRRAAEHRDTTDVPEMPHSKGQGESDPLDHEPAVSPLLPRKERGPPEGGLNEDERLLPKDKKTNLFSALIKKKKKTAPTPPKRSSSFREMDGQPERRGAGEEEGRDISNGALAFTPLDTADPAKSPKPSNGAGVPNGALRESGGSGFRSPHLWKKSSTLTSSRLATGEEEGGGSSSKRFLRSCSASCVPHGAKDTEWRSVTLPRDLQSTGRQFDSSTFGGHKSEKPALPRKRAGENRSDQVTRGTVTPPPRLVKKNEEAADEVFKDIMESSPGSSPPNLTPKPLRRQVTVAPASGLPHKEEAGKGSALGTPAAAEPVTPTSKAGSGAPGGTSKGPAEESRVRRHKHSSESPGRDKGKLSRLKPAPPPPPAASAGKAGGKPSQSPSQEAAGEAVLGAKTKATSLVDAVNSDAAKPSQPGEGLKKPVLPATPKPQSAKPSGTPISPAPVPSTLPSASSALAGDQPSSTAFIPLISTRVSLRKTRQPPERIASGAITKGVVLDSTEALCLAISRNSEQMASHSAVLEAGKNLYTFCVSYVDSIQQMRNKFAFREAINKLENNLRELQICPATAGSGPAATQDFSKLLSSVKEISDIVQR

[10] = target: VEGFR1 kinase (Homo sapiens, UniProt P17948); experiment: Luminescence ADP production kinase assay, VEGFR1; details: for Luminescence ADP kinase assay IC50 VEGFR1: 50 nM enzyme, 200 μM ATP, * = partial inhibition
VEGFR1 kinase, sequence (P17948 27-1338): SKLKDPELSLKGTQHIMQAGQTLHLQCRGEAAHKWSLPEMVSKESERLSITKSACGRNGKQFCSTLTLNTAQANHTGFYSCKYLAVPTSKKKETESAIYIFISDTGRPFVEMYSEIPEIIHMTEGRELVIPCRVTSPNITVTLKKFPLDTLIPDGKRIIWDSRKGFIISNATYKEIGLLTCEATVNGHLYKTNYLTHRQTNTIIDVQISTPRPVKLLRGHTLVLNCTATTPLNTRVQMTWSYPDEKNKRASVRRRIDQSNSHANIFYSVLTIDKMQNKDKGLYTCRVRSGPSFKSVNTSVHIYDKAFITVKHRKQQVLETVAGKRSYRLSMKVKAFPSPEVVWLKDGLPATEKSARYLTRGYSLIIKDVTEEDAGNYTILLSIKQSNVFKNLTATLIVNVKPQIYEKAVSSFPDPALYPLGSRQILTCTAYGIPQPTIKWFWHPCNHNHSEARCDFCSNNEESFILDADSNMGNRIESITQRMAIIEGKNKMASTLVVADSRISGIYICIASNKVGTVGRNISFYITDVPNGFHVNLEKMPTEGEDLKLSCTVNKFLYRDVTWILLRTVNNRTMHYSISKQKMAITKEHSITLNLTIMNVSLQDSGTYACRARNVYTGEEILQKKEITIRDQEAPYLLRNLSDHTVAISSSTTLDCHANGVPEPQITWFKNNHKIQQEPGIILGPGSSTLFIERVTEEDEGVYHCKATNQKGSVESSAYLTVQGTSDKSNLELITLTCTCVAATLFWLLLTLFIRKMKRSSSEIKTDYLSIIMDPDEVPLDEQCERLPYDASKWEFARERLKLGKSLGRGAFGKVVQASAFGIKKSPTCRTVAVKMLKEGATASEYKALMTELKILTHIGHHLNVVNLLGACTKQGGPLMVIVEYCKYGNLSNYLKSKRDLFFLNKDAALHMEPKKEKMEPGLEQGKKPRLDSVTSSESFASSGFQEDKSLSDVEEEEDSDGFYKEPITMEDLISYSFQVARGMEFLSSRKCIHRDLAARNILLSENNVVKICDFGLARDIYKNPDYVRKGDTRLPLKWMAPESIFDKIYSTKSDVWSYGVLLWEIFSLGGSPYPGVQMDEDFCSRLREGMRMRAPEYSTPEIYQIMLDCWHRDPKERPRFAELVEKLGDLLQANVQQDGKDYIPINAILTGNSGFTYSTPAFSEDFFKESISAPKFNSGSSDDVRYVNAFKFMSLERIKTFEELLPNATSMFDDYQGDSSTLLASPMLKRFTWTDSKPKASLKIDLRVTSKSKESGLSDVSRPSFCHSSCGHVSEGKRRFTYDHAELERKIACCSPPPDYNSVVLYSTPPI

[11] = target: recombinant EGFR kinase; details: read-out: Reported IC50 toward recombinant EGFR kinase; cited from earlier work
[12] = inhibitors, dose response up to 10 μM, N.E. = no effect, * = partial inhibition
[13] = inhibitors, dose response up to 10 μM, ±standard deviation, N.E. = no effect
[14] = activators, dose response up to 10 μM, N.E. = no effect

| SMILES | inhibition at 10 µM [1] | IC50 [1] | IC50 or EC50 (nM) Nuclei count [2, 12] | inhibition at 10 µM [2] | IC50 [3] | IC50 [4] | IC50 [5] | IC50 [6] | IC50 [8] | IC50 [10] | IC50 [1, 13] | HTS % inhibition at 10 μM Nuclei count [2] | further results |
| --- | --- | --- | --- | --- | --- | --- | --- | --- | --- | --- | --- | --- | --- |
| CS(=O)(=O)CCNCc1nc(-c2ccc3ncnc(Nc4ccc(OCc5cccc(F)c5)c(Cl)c4)c3c2)cs1 [GW 583340] | 94% | 2000 nM | N.E. | 26% | > 10000 nM | > 10000 nM | 960 ± 60 nM | 2000 ± 200 nM | > 10000 nM | > 10000 nM | – | – | IC50 [7]: 1300 ± 100 nM; IC50 [9]: > 10000 nM |
| CC(C)[C@H](CO)Nc1nc(Nc2cc(N)cc(Cl)c2)c2ncn(C(C)C)c2n1 [Aminopurvalanol A, aminopurvalanol A] | – | – | N.E.^* | – | – | – | – | – | – | – | 910 ± 400 nM | 40% | – |
| COc1cc2ncnc(Nc3cccc(Cl)c3)c2cc1OC [Tyrphostin AG 1478] | 94% | 65 ± 8 nM | N.E. | 12% | > 10000 nM | > 10000 nM | 49 ± 1 nM | 33 ± 7 nM | 2600 ± 1300 nM | > 10000 nM | – | – | IC50 [9]: 2000 ± 600 nM |
| COC(=O)/C=C/c1cc(O)ccc1O [Erbstatin analog] | – | – | N.E.^* | – | – | – | – | – | – | – | – | 2% | IC50 or EC50 (nM) Granule count [1, 13]: N.E.; Alamar Blue viability assay IC50 A549 [3]: only partial inhibition; Alamar Blue viability assay IC50 H2030 [4]: only partial inhibition; Alamar Blue viability assay IC50 H3255 [5]: only partial inhibition; Alamar Blue viability assay IC50 HCC4011 [6]: only partial inhibition; Luminescence ADP kinase assay IC50 EGFR [7]: inactive; Luminescence ADP kinase assay IC50 SRC [8]: inactive; Luminescence ADP kinase assay IC50 ABL [9]: inactive; Luminescence ADP kinase assay IC50 VEGFR1 [10]: inactive |
| CCN(CC)CC1CCN(c2ncc3ncnc(Nc4ccc(F)c(Cl)c4)c3n2)CC1.Cl.Cl [BIBU 1361] | – | – | N.E. | – | – | – | – | – | – | – | 38 ± 7 nM | 3% | IC50 [11]: 3 nM |
| CN(C)c1cc2c(Nc3ccc4c(cnn4Cc4ccccc4)c3)ncnc2cn1 [GW 2974] | – | – | N.E. | – | – | – | – | – | – | – | 1300 nM | 18% | – |
| COc1cc2ncnc(Nc3ccc(Cl)cc3F)c2cc1OC [ZM-306416] | – | – | N.E. | – | – | – | – | – | – | – | 670 ± 200 nM | 21% | Alamar Blue viability assay IC50 A549 [3]: inactive; Alamar Blue viability assay IC50 H2030 [4]: inactive |
| CC1(C)O[C@@H]2C[C@H]3[C@@H]4C[C@H](F)C5=CC(=O)CC[C@]5(C)[C@H]4[C@@H](O)C[C@]3(C)[C@]2(C(=O)CO)O1 [Flurandrenolide, flurandrenolide] | -165% | – | – | 7% | > 10000 nM | > 10000 nM | > 10000 nM | > 10000 nM | > 10000 nM | > 10000 nM | – | – | EC50 [1]: 23 ± 20 nM; IC50 or EC50 (nM) Nuclei count [2, 14]: N.E.; Alamar Blue viability assay IC50 A549 [3]: inactive; Alamar Blue viability assay IC50 H2030 [4]: inactive; Alamar Blue viability assay IC50 H3255 [5]: inactive; Alamar Blue viability assay IC50 HCC4011 [6]: inactive; IC50 [7]: > 10000 nM; Luminescence ADP kinase assay IC50 EGFR [7]: no inhibitory effects; Luminescence ADP kinase assay IC50 SRC [8]: no inhibitory effects; Luminescence ADP kinase assay IC50 VEGFR1 [10]: no inhibitory effects |
| CO[C@@H]1[C@H](N(C)C(=O)c2ccccc2)C[C@H]2O[C@]1(C)n1c3ccccc3c3c4c(c5c6ccccc6n2c5c31)C(=O)NC4 [PKC 412] | – | 1300 nM | – | – | – | – | – | – | – | – | – | – | – |
| CCc1cc(-c2n[nH]c(C)c2-c2ccc3c(c2)OCCO3)c(O)cc1O [CCT 018159] | – | – | – | – | – | – | – | – | – | – | – | – | Inhibition of granule formation in dose response ([1]; at 5 and 10 μM): partial inhibition |
| C[C@H]1C[C@H]2[C@@H]3CCC4=CC(=O)C=C[C@]4(C)[C@@]3(Cl)[C@@H](O)C[C@]2(C)[C@@]1(O)C(=O)CO [Beclomethasone, beclomethasone] | – | – | – | – | – | – | – | – | – | – | – | 16% | EC50 ([1]; activators of granule formation, dose response up to 10 μM, ±standard deviation): 42 ± 7 nM; IC50 or EC50 (nM) Nuclei count [2, 14]: N.E.; Luminescence ADP kinase assay IC50 EGFR [7]: no inhibitory effects; Luminescence ADP kinase assay IC50 SRC [8]: no inhibitory effects; Luminescence ADP kinase assay IC50 ABL [9]: no inhibitory effects; Luminescence ADP kinase assay IC50 VEGFR1 [10]: no inhibitory effects |
| CO[C@H]1/C=C\C=C(/C)C(=O)NC2=CC(=O)C(NCCN(C)C)=C(C[C@@H](C)C[C@H](OC)[C@H](O)[C@@H](C)/C=C(\C)[C@@H]1OC(N)=O)C2=O [17-DMAG, 17-dimethylaminoethylamino-17-demethoxy-geldanamycin] | – | – | N.E. | – | – | – | – | – | – | – | 29 ± 3 nM | 33% | – |
| C#Cc1cccc(Nc2ncnc3cc(OCCOC)c(OCCOC)cc23)c1 [Erlotinib, erlotinib] | – | – | – | 36% | – | – | – | – | – | – | – | – | IC50 or EC50 (nM) Nuclei count [2]: N.E. |
| CS(=O)(=O)CCNCc1ccc(-c2ccc3ncnc(Nc4ccc(OCc5cccc(F)c5)c(Cl)c4)c3c2)o1 [Lapatinib, lapatinib] | 91% | 590 ± 30 nM | – | 0% | > 10000 nM | > 10000 nM | 1200 ± 100 nM | 1500 ± 100 nM | – | – | – | – | IC50 or EC50 (nM) Nuclei count [2]: N.E. |
| CC[C@@]1(O)C(=O)OCc2c1cc1n(c2=O)Cc2cc3ccccc3nc2-1 [Camptothecin, camptothecin] | 81% | 720 ± 100 nM | N.E.^* | 40% | 35 ± 50 nM | 17 ± 5 nM | 390 ± 50 nM | 290 ± 40 nM | > 10000 nM | > 10000 nM | – | – | IC50 [7]: > 10000 nM; IC50 [9]: > 10000 nM |
| COc1cc2ncnc(Nc3cccc(Br)c3)c2cc1OC [PD 153035] | 97% | 91 ± 20 nM | – | 12% | > 10000 nM | > 10000 nM | 72 ± 12 nM | 48 ± 12 nM | > 10000 nM | > 10000 nM | – | – | IC50 or EC50 (nM) Nuclei count [2]: N.E. |
